{
  "source": "patent US20060183888A1",
  "about": "(priority 2004, published 2006)",
  "key": {"[1]": {"experiment": "NMR H/D exchange studies", "assay_type": "physicochemical", "protocol": "Compound 7 (˜4 mg, ˜10 μmol) was dissolved in CD3OD (0.75 mL), and D2O (2 drops) was added. The reaction mixture was kept at rt and monitored by NMR (400 MHz). […] NaOD (30% w/w in D2O, 2 drops) was then added, and the solution monitored by NMR. […] After 25 h, the C5 proton peak completely disappeared.\nTo rule out the possibility that the loss of the C5 proton peak was due to decomposition, the resulting mixture was evaporated at rt under reduce pressure, and the residue was redissolved in CH3OH and allowed to stir for 1 day. The mixture was then evaporated to dryness in vacuo, and redissolved in CD3OD. The NMR spectrum was quickly taken, and the C5 proton peak was again observed. As before, the C5 proton peak slowly disappeared over a 1-day period.\nTo evaluate the importance of the imine bond on the acidity of the C5 proton, proline was dissolved in 0.75 mL CD3OD and 0.20 mL D2O and treated with […]."}, "[2]": {"experiment": "Stability studies to NaOH, LiOH, TFA (TLC)", "assay_type": "physicochemical", "protocol": "Stability Studies of Compound (8) to NaOH. NaOH (6 M, 20 μL, 0.12 mmol) was added to a solution of compound 8 (0.15 M, 100 μL, 0.015 mmol). The resulting mixture was allowed to react at rt over 3 days, during which the degradation of compound 8 was monitored by a ninhydrin TLC assay (CHCl3—MeOH—NH4OH(aq)=2:2:1).\nStability Studies of Compound (8) to LiOH. Compound 8 (21.9 mg, 84 μmol) was dissolved in water (2 mL) and LiOH-H2O (84.5 mg, 2.0 mmol) was added. This mixture was allowed to react at rt. […] After 5 days, the solution was evaporated to dryness at rt, redissolved in MeOH (0.5 mL), and purified on chromatography silica gel.\nStability Studies of Compound (8) to TFA. Compound 8 (21.7 mg, 0.083 mmol) was dissolved in MeOH (2 mL) and TFA (200 μL) was added. […] The mixture was allowed to react to completion for 2 days at rt. The resulting mixture was evaporated to dryness, dissolved in MeOH (0.5 mL), and subjected to chromatography on silica gel."}, "[3]": {"system": "E. coli BL21 (DE3) expressing pylT, pylS and mtmB1", "experiment": "Pyrrolysine-dependent amber suppression (mtmB1 UAG readthrough, anti-MtmB immunoblot)", "assay_type": "cell-based", "details": "1 mM in the medium, induced 4 h", "experimental": "To test for amber suppression, overnight cultures were grown in Luria-Bertani broth (3 ml) with 100 μg ml^−1 ampicillin. Subsequently, 200 μl was inoculated into 1 ml fresh medium and grown to a D600 of 0.6. […] The mtmB1 gene products in equivalent amounts of lysates were then analysed by immunoblotting of a SDS 12.5% polyacrylamide gel with affinity-purified rabbit anti-MtmB antibody^6. The Rainbow Molecular Weight markers (Amersham Biosciences) were used.\nTo test for amber suppression, overnight cultures of a strain bearing one of the plasmids were grown in LB broth (3 mL) with 100 ug/ml final ampicillin. Subsequently, 200 μl of each culture was inoculated into 1 ml of fresh LB medium with ampicillin, and grown to an A600 of approximately 0.6. […] The cultures were then centrifuged for 1 minute 16,000×g, and the cell pellets lysed in 125 mM Tris HCl, 4.6% SDS, 20% glycerol and 10% (v/v) β-mercaptoethanol, pH 6.8, at 90 degrees for 10 minutes.\nExtracts were electrophoresed in a 12.5% SDS-PAGE gel, then electroblotted overnight at 150 mA onto PVDF membrane (Bio-Rad Labs, Hercules, Calif.). The membrane was then incubated for 1 hour at room temperature with Western Breeze blocking solution (Invitrogen). […]"}, "[4]": {"system": "E. coli BW25141(DE3) with pylT, pylS and UAG-mutant uidA", "assay_type": "cell-based", "description": "In order to avoid interference by the residue uidA gene, we employed a strain with most ofuidA deleted, E. coli BW25141(DE3). This strain was transformed with pDLGUS, a variant of the pEC03 plasmid in which the mtmB1 gene was removed and the uidA gene introduced in its place."}, "[5]": {"molecular_target": "T1, His6-PylS (Methanosarcina barkeri, UniProt Q6WRH6)", "T1 construct": "His6 (hexahistidine) (N); made in house", "T1 sequence (Q6WRH6 whole entry)": "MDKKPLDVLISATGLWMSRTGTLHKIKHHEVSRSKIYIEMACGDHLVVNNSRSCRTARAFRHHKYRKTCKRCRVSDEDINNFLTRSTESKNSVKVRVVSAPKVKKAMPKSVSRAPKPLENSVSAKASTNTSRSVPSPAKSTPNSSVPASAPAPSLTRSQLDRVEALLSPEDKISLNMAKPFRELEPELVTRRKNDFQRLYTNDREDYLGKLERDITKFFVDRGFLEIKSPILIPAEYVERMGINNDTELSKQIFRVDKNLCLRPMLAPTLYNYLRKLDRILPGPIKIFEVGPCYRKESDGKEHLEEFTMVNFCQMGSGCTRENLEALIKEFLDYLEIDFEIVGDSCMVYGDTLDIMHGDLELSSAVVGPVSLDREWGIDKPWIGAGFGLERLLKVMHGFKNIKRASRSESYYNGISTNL", "experiment": "Gel-shift aminoacylation assay with N-terminally His-tagged PylS", "assay_type": "biochemical", "protocol": "(§1) The reaction was terminated after 5-30 min at 37° C. with an equal volume of 0.3 M sodium acetate, 8 M urea pH 5.0. Charged and uncharged tRNA were separated by acid-urea acrylamide gel electrophoresis, blotted to nitrocellulose and probed with a 5μ ^32P-end-labelled, 72-base oligonucleotide complementary to tRNACUA. Radioactivity was analysed with a STORM Phosphorimager (Amersham Biosciences).\nAminoacylation assay in acid-urea gels. […] Following incubation at 37° C. for 5 to 30 minutes, the reaction was terminated by addition of an equal volume of 2× loading dye (0.3 M sodium acetate, 8 M urea, pH 5.0) and charged and uncharged tRNA species analysed by acid-urea acrylamide gel electrophoresis following the methods outlined in Jester et al. Samples were electrophoresed in 14% polyacrylamide gels buffered with a 0.3 M sodium acetate-7 M urea solution, pH 5.0, at 50 volts and 4° C. for 24 hours. The same buffer without urea was used in the electrode chambers, and was replaced with fresh buffer every 6-8 hours. Finished gels were transblotted for 2 hours at 40 volts in 4° C. in a blotting solution of 10 mM Tris-acetate, 5 mM sodium acetate, and 0.5 mM EDTA, pH 8.0. […] Radioactivity on the blot was imaged and analyzed using a STORM Phosphorimager (Amersham Biosciences)."}, "[6]": {"molecular_target": "T2, PylS-His6 (Methanosarcina barkeri, UniProt Q6WRH6)", "T2 sequence (Q6WRH6 whole entry)": "as above", "experiment": "Aminoacylation of tRNACUA, acid-urea gel shift and northern blot", "assay_type": "biochemical", "set-up": "made in house; host or cells: E. coli BL21 (DE3)", "protocol": "as §1\nAminoacylation assay in acid-urea gels. […] Following incubation at 37° C. for 5 to 30 minutes, the reaction was terminated by addition of an equal volume of 2× loading dye (0.3 M sodium acetate, 8 M urea, pH 5.0) and charged and uncharged tRNA species analysed by acid-urea acrylamide gel electrophoresis following the methods outlined in Jester et al. Samples were electrophoresed in 14% polyacrylamide gels buffered with a 0.3 M sodium acetate-7 M urea solution, pH 5.0, at 50 volts and 4° C. for 24 hours. The same buffer without urea was used in the electrode chambers, and was replaced with fresh buffer every 6-8 hours. Finished gels were transblotted for 2 hours at 40 volts in 4° C. in a blotting solution of 10 mM Tris-acetate, 5 mM sodium acetate, and 0.5 mM EDTA, pH 8.0. The blot was then cross-linked by ultraviolet radiation (15000 μJ/cm2 per side) then prehybrized in 0.25 M sodium phosphate buffer, pH 7.2, and 5.7% SDS for at least 30 minutes. In order to detect charged and uncharged tRNACUA a 72 base oligonucleotide complementary to full length of tRNACUA was labeled with γ-^32P ATP and polynucleotide kinase. The probe was hybridized with the blot overnight at room temperature, then agitated at 22° C. for 5 minute in 10 mM sodium citrate, 150 mM NaCl, 1% SDS, pH 7.0, then agitated with two changes of 5 mM sodium citrate, 75 mM sodium chloride, 1% SDS, pH 7.0, for 5 minutes each. Radioactivity on the blot was imaged and analyzed using a STORM Phosphorimager (Amersham Biosciences)."}, "[7]": {"molecular_target": "T2, PylS-His6", "protocol": "The pyrophosphate exchange reaction was essentially performed following the method of Cole and Schimmel. All reactions were performed in duplicate at 37° C. The 100 to 200 μl reactions contained (unless noted) 0.3 to […] PylSHis6. […] The specific activity of the radiolabel was adjusted from 4 to 10 dpm/pmol). The concentration of protein was 0.3 to 1 μM. At specific times, 25 μl aliquots were removed and quenched in 500 μl of a stop solution containing 1.6% (w/v) activated acid-washed charcoal (Sigma Chemical Co., St. Louis, Mo.), 80 mM sodium tetrapyrophosphate, and 3.5% (v/v) perchloric acid. Samples were filtered through Whatman GF/C glass-fiber filters and then the filter was washed three times with 5 ml of 40 mM sodium tetrasodium pyrophosphate solution containing 1.7% perchloric acid (v/v) and once with 5 ml 100% ethanol. Filters were dried at 80° C. for 5 minutes then placed in 20 ml scintillation vials containing 10 ml of Ultima Gold F scintillation cocktail (PerkinElmer), shaken once, and counted in a liquid scintillation analyzer. Identical reactions without amino acid, ATP, or enzyme were also set up as negative controls in duplicate. […] One substrate was kept constant at a concentration higher than its respective apparent Km value."}},
  "data": [
    {"molecule": "O=C(O)[C@@H]1CCCN1", "note": "[proline, reference compound]", "values": [
      {"measurement": "H/D exchange of protons on ring carbons", "setting": "[1]; CD3OD/D2O with base, rt, 1 day", "result": "No evidence for H/D exchange"}
    ]},
    {"molecule": "COC(=O)[C@H](CCCCNC(=O)[C@@H]1N=CC[C@H]1C)NC(=O)C(F)(F)F", "note": "[Compound 7, Nα-Trifluoroacetyl-L-pyrrolysine methyl ester]", "values": [
      {"measurement": "change in NMR", "setting": "[1]; CD3OD with D2O, rt, 3-day period", "result": "No change was observed"},
      {"measurement": "time to complete disappearance of the C5 proton peak (H/D exchange)", "setting": "[1]; NaOD added, CD3OD/D2O", "result": 25, "unit": "h"}
    ]},
    {"molecule": "C[C@@H]1CC=N[C@H]1C(=O)NCCCC[C@H](N)C(=O)O", "note": "[pyrrolysine, L-pyrrolysine]", "values": [
      {"measurement": "conversion under acidic conditions", "setting": "[2]; acidic conditions", "result": "converted to its enamine form"},
      {"measurement": "UAG readthrough of mtmB1 (50-kDa MtmB)", "setting": "[3]", "result": "large amounts of 50-kDa MtmB"},
      {"measurement": "increase of beta-glucuronidase activity", "setting": "[4]; 1 mM synthetic pyrrolysine versus absence of pyrrolysine", "result": "approximately 100 fold"},
      {"measurement": "beta-glucuronidase activity", "setting": "[4]; induced with IPTG, 1 mM synthetic pyrrolysine", "result": "4.", "unit": "umol/min·mg protein"},
      {"measurement": "tRNA synthetase activity", "setting": "[5]", "result": "does have pyrrolysyl-tRNA synthetase activity"},
      {"measurement": "aminoacylation of tRNAIYS in the M. acetivorans tRNA pool", "setting": "[6]", "result": "does not aminoacylate"},
      {"measurement": "maximal conversion of deacylated tRNACUA to charged species", "setting": "[6]; deacylated M. acetivorans cellular tRNA pool, with ATP and PylS-His6", "result": 50, "unit": "%"},
      {"measurement": "maximum of tRNACUA transcribed in vitro aminoacylated", "setting": "[6]; in vitro transcribed tRNACUA", "result": 43, "unit": "%"},
      {"measurement": "apparent Vmax", "setting": "[7]; exchange reaction", "result": 120, "unit": "nmol min^−1 per mg PylS"}
    ]},
    {"molecule": "NCCCC[C@H](N)C(=O)O", "note": "[lysine, reference compound]", "values": [
      {"measurement": "UAG readthrough of mtmB1 (50-kDa MtmB)", "setting": "[3]", "result": "could not be replaced"},
      {"measurement": "tRNA synthetase activity", "setting": "[5]", "result": "no lysyl-tRNA synthetase activity was detectable"},
      {"measurement": "aminoacylation of tRNAIYS in the M. acetivorans tRNA pool", "setting": "[6]", "result": "does not aminoacylate"},
      {"measurement": "formation of charged tRNACUA species", "setting": "[6]; amino acids at 50 μM, cellular tRNA pool", "result": "not formed"},
      {"measurement": "isotopic exchange into ATP above background", "setting": "[7]; 1 mM, up to 30 min", "result": "no detectable isotopic exchange"}
    ]},
    {"molecule": "C[C@@H]1CC=N[C@H]1C(=O)NCCCC[C@H](N)C(=O)[O-].[Li+]", "note": "[Compound 8, L-Pyrrolysine lithium salt]", "values": [
      {"measurement": "degradation by LiOH (TLC)", "setting": "[2]; LiOH in water, rt, after 24 h", "result": "two new bands"},
      {"measurement": "degradation by NaOH (ninhydrin TLC)", "setting": "[2]; NaOH, rt, over 3 days", "result": "One new band"},
      {"measurement": "degradation by TFA (TLC)", "setting": "[2]; TFA in MeOH, after 1 h, complete in 2 days at rt", "result": "one new band"}
    ]},
    {"molecule": "Nc1ncnc2c1ncn2[C@@H]1O[C@H](COP(=O)(O)OP(=O)(O)OP(=O)(O)O)[C@@H](O)[C@H]1O", "note": "[ATP]", "values": [
      {"measurement": "Km", "setting": "[7]; read-out: apparent Km, 37° C., pH 7.2", "result": 2, "unit": "µM"}
    ]}
  ]
}
